{"source": "patent US9409983B2", "about": "“Methods and compositions involving PBEF inhibitors for lung inflammation conditions and diseases” (The Board of Trustess of the University of Illinois, priority 2009, dated 2016)", "key": {"C57BL/6 mice [1]": {"system": "C57BL/6 mice", "assay": "Lung RNA microarray analysis (SAM dysregulated genes) with RT-PCR and BAL ELISA validation", "format": "in vivo, mouse"}, "C57BL/6 mice [2]": {"system": "C57BL/6 mice", "assay": "Lung RNA microarray analysis (SAM dysregulated genes) with RT-PCR and BAL ELISA validation", "format": "in vivo, mouse", "procedure": "Total lung RNA was isolated as described previously (Nonas et al., 2007). Affymetrix Mouse430_2 arrays (Affymetrix Inc., Santa Clara, Calif.) were utilized. Chip quality (Li and Wong, 2001) and ‘present’ or ‘absent’ expression calls were determined by GeneChip® Operating Software (GCOS) (GSE9368-rhPBEF, GSE9314-PBEF^+/−). Intensities and normalization of probe sets were calculated by Bioconductor software (GCRMA package) (Team RDC, 2005). To identify differentially-expressed genes, pairwise comparisons were conducted using Significance Analysis of Microarrays (SAM) as previously described (Nonas et al., 2007). Gene filtering parameters and results are summarized in Supplementary Table E2. Differentially-expressed genes displaying>2 fold changes are referred to as “dysregulated genes”.\nDysregulated gene functional profiles were analyzed using Onto-Express with the number of genes in each GO biological process category (Wu et al., 2004) compared with all genes on the […] chip to determine the significance of the GO category (Consortium, 2006). Ingenuity Pathway Analysis (IPA) software (containing individually modeled relationships between gene objects e.g. genes, mRNAs, proteins) was utilized to dynamically generate significant regulatory and signaling networks or pathways. The significance of a canonical pathway is controlled by the p-value calculated using the right-tailed Fisher Exact Test for 2×2 contingency tables. (See Supplemental Methods).\nLung total RNA was isolated from whole rodent lung tissue for microarray experiment as we have described previously (9) using the Affymetrix GeneChip platform and Expression Analysis Manual protocols (Affymetrix Inc., Santa Clara, Calif.). The signal intensity fluorescent images produced during Affymetrix GeneChip Mouse430_2 Array hybridizations were scanned using the Hewlett-Packard GeneArray Scanner G2500A. The ‘Present’ or ‘Absent’ calls of the probe sets in the expression chips were determined by GCOS (GeneChip® Operating Software) software. The microarray data have been submitted to the National Center for Biotechnology Information (NCBI)'s Gene Expression Omnibus repository (GSE9368 for rhPBEF study and GSE9314 for PBEF^+/− study). Chip quality (RNA degradation, cDNA synthesis, hybridization, chip washing, scanning) was evaluated with GCOS, dChip (Li and Wong, 2001) and Bioconductor ‘affy’ packages. All RNA samples and chips adopted in current study passed the quality criteria (data not shown). The intensities of probe sets were calculated by the GC Robust Multichip Average (GCRMA) package of Bioconductor software for normalization (Team RDC, 2005). To identify differentially-expressed genes, pairwise comparisons were conducted using Significance Analysis of Microarrays (SAM) (see the SAM online manual for detailed explanations of the blocking approach, www-stat.stanford.edu/˜tibs/SAM) as we have previously described (Nonas et al., 2007). Only probe sets present (determined by Affy ‘P’-call) in three replicates of at least one group with mean intensity above 100 were used for further data mining. The gene filtering parameters and results were summarized in Supplementary Table E2. […] For probe sets representing the same Entrez Gene or UniGene ID, only the probe set with lowest FDR or highest fold changes was included in the gene list.\nDysregulated genes were uploaded into the IPA software (http://www.ingenuity.com), a web-delivered application which utilizes the Ingenuity Pathways Knowledge Base (IPKB) containing a robust number of individually modeled relationships between gene objects (e.g. genes, mRNAs, proteins), in order to dynamically generate significant regulatory and signaling networks or pathways. […]", "remark": "listed apart in the source"}, "[3]": {"conditions": "VILIa-rhPBEF vs. Control, SAM, fold change 2"}, "[4]": {"conditions": "VILIa-rhPBEF vs. VILIa, SAM, fold change 2"}, "[5]": {"conditions": "rhPBEF vs. Control, SAM, fold change 2"}}}
{"substance": "rhPBEF: Recombinant human soluble PBEF/visfatin, a 52 kDa protein containing 465 amino acid residues, purchased from PeproTech", "values": [{"measurement": "Significant probe sets", "setting": "C57BL/6 mice [1]; [3]", "value": 836}, {"measurement": "Unique Down", "setting": "C57BL/6 mice [1]; [3]", "value": 258}, {"measurement": "Unique Up", "setting": "C57BL/6 mice [1]; [3]", "value": 432}, {"measurement": "Unique gene (dysregulated genes)", "setting": "C57BL/6 mice [1]; [3]", "value": 690}, {"measurement": "Significant probe sets", "setting": "C57BL/6 mice [1]; [4]", "value": 82}, {"measurement": "Unique Down", "setting": "C57BL/6 mice [1]; [4]", "value": 0}, {"measurement": "Unique Up", "setting": "C57BL/6 mice [1]; [4]", "value": 65}, {"measurement": "Unique gene (differentially expressed genes)", "setting": "C57BL/6 mice [1]; [4]", "value": 65}, {"measurement": "BCL3 DNA microarray, average fold change increase over control", "setting": "C57BL/6 mice [1]; rhPBEF", "value": 7, "unit": "fold change"}, {"measurement": "BCL3 RNA (RT-PCR), average fold change increase over control", "setting": "C57BL/6 mice [1]; rhPBEF", "value": 4, "unit": "fold change"}, {"measurement": "CxCL1 (KC) Protein (BAL levels by ELISA), average fold change increase over control", "setting": "C57BL/6 mice [1]; rhPBEF", "value": 43, "unit": "fold change"}, {"measurement": "CxCL1 (KC) RNA (RT-PCR), average fold change increase over control", "setting": "C57BL/6 mice [1]; rhPBEF", "value": 146, "unit": "fold change"}, {"measurement": "CxCL2 (MIP2α) DNA microarray, average fold change increase over control", "setting": "C57BL/6 mice [1]; rhPBEF", "value": 2290, "unit": "fold change"}, {"measurement": "CxCL2 (MIP2α) Protein (BAL levels by ELISA), average fold change increase over control", "setting": "C57BL/6 mice [1]; rhPBEF", "value": 115, "unit": "fold change"}, {"measurement": "CxCL2 (MIP2α) RNA (RT-PCR), average fold change increase over control", "setting": "C57BL/6 mice [1]; rhPBEF", "value": 613, "unit": "fold change"}, {"measurement": "IL-1-β DNA microarray, average fold change increase over control", "setting": "C57BL/6 mice [1]; rhPBEF", "value": 70, "unit": "fold change"}, {"measurement": "IL-1-β Protein (BAL levels by ELISA), average fold change increase over control", "setting": "C57BL/6 mice [1]; rhPBEF", "value": 3, "unit": "fold change"}, {"measurement": "IL-6 DNA microarray, average fold change increase over control", "setting": "C57BL/6 mice [1]; rhPBEF", "value": 240, "unit": "fold change"}, {"measurement": "IL-6 Protein (BAL levels by ELISA), average fold change increase over control", "setting": "C57BL/6 mice [1]; rhPBEF", "value": 9, "unit": "fold change"}, {"measurement": "MMP9 DNA microarray, average fold change increase over control", "setting": "C57BL/6 mice [1]; rhPBEF", "value": 16, "unit": "fold change"}, {"measurement": "MMP9 RNA (RT-PCR), average fold change increase over control", "setting": "C57BL/6 mice [1]; rhPBEF", "value": 16, "unit": "fold change"}, {"measurement": "Map3k8 RNA (RT-PCR), average fold change increase over control", "setting": "C57BL/6 mice [1]; rhPBEF", "value": 1, "unit": "fold change"}, {"measurement": "TNF-α Protein (BAL levels by ELISA), average fold change increase over control", "setting": "C57BL/6 mice [1]; rhPBEF", "value": 43, "unit": "fold change"}, {"measurement": "BCL3 RNA (RT-PCR), average fold change increase over control", "setting": "C57BL/6 mice [1]; rhPBEF VILIa", "value": 10, "unit": "fold change"}, {"measurement": "CxCL1 (KC) Protein (BAL levels by ELISA), average fold change increase over control", "setting": "C57BL/6 mice [1]; rhPBEF VILIa", "value": 45, "unit": "fold change"}, {"measurement": "CxCL1 (KC) RNA (RT-PCR), average fold change increase over control", "setting": "C57BL/6 mice [1]; rhPBEF VILIa", "value": 148, "unit": "fold change"}, {"measurement": "CxCL2 (MIP2α) Protein (BAL levels by ELISA), average fold change increase over control", "setting": "C57BL/6 mice [1]; rhPBEF VILIa", "value": 196, "unit": "fold change"}, {"measurement": "CxCL2 (MIP2α) RNA (RT-PCR), average fold change increase over control", "setting": "C57BL/6 mice [1]; rhPBEF VILIa", "value": 1479, "unit": "fold change"}, {"measurement": "IL-1-β DNA microarray, average fold change increase over control", "setting": "C57BL/6 mice [1]; rhPBEF VILIa", "value": 87, "unit": "fold change"}, {"measurement": "IL-1-β Protein (BAL levels by ELISA), average fold change increase over control", "setting": "C57BL/6 mice [1]; rhPBEF VILIa", "value": 3, "unit": "fold change"}, {"measurement": "IL-6 DNA microarray, average fold change increase over control", "setting": "C57BL/6 mice [1]; rhPBEF VILIa", "value": 900, "unit": "fold change"}, {"measurement": "IL-6 Protein (BAL levels by ELISA), average fold change increase over control", "setting": "C57BL/6 mice [1]; rhPBEF VILIa", "value": 27, "unit": "fold change"}, {"measurement": "MMP9 RNA (RT-PCR), average fold change increase over control", "setting": "C57BL/6 mice [1]; rhPBEF VILIa", "value": 1, "unit": "fold change"}, {"measurement": "Map3k8 DNA microarray, average fold change increase over control", "setting": "C57BL/6 mice [1]; rhPBEF VILIa", "value": 4, "unit": "fold change"}, {"measurement": "Map3k8 RNA (RT-PCR), average fold change increase over control", "setting": "C57BL/6 mice [1]; rhPBEF VILIa", "value": 2, "unit": "fold change"}, {"measurement": "TNF-α DNA microarray, average fold change increase over control", "setting": "C57BL/6 mice [1]; rhPBEF VILIa", "value": 23, "unit": "fold change"}, {"measurement": "TNF-α Protein (BAL levels by ELISA), average fold change increase over control", "setting": "C57BL/6 mice [1]; rhPBEF VILIa", "value": 45, "unit": "fold change"}, {"measurement": "Significant probe sets", "setting": "C57BL/6 mice [1]; [5]", "value": 613}, {"measurement": "Unique Up", "setting": "C57BL/6 mice [1]; [5]", "value": 375}, {"measurement": "Unique gene (dysregulated genes)", "setting": "C57BL/6 mice [1]; [5]", "value": 493}, {"measurement": "dysregulated genes in the NFκB pathway", "setting": "C57BL/6 mice [2]; VILIa-rhPBEF combined exposure, Ingenuity Pathway Analysis", "value": 21}, {"measurement": "CxCL1 (KC) DNA microarray, average fold change increase over control", "setting": "C57BL/6 mice [2]; rhPBEF", "value": 510, "unit": "fold change"}, {"measurement": "Map3k8 DNA microarray, average fold change increase over control", "setting": "C57BL/6 mice [2]; rhPBEF", "value": 3, "unit": "fold change"}, {"measurement": "TNF-α DNA microarray, average fold change increase over control", "setting": "C57BL/6 mice [2]; rhPBEF", "value": 23, "unit": "fold change"}, {"measurement": "BCL3 DNA microarray, average fold change increase over control", "setting": "C57BL/6 mice [2]; rhPBEF VILIa", "value": 11, "unit": "fold change"}, {"measurement": "CxCL1 (KC) DNA microarray, average fold change increase over control", "setting": "C57BL/6 mice [2]; rhPBEF VILIa", "value": 589, "unit": "fold change"}, {"measurement": "CxCL2 (MIP2α) DNA microarray, average fold change increase over control", "setting": "C57BL/6 mice [2]; rhPBEF VILIa", "value": 2128, "unit": "fold change"}, {"measurement": "MMP9 DNA microarray, average fold change increase over control", "setting": "C57BL/6 mice [2]; rhPBEF VILIa", "value": 13, "unit": "fold change"}, {"measurement": "Unique Down", "setting": "C57BL/6 mice [2]; [5]", "value": 118}]}
